In the supplement of paper PMC4862054:

How the values were obtained:
DU-4475 [1] = assay: drug sensitivity score (DSS), CellTiter-Blue viability (DSS (AUC-based score)); higher = stronger viability inhibition; extreme values may be limits of the assay; conditions: incubation time: 72 h
Protocol: (§1)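 DSRT with the CellTiter-Blue (resazurin reduction) viability readout, fluorescence 560/590 nm, 72 h incubation. Plates were normalised to DMSO and benzethonium chloride controls. DSS is computed from the area under the fitted dose-response curve (5 or 9 concentrations).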

HCC1143 = assay: as above; conditions: incubation time: 72 h
Protocol: as §1

CAL-120 = assay: as above; conditions: incubation time: 72 h
Protocol: as §1

CAL-51 [2] = assay: as above; conditions: incubation time: 72 h
Protocol: as §1

BT-474 = assay: as above; conditions: incubation time: 72 h
Protocol: as §1

MDA-MB-231 = assay: as above; conditions: incubation time: 72 h
Protocol: as §1

MDA-MB-453 [3] = assay: as above; conditions: incubation time: 72 h
Protocol: as §1

CAL-148 [4] = assay: as above; conditions: incubation time: 72 h
Protocol: as §1

HCC1599 = assay: as above; conditions: incubation time: 72 h
Protocol: as §1

MFM-223 = assay: as above; conditions: incubation time: 72 h
Protocol: as §1

BT-549 = assay: as above; conditions: incubation time: 72 h
Protocol: as §1

SK-BR-3 = assay: as above; conditions: incubation time: 72 h
Protocol: as §1

MDA-MB-436 = assay: as above; conditions: incubation time: 72 h
Protocol: as §1

HDQ-P1 [5] = assay: as above; conditions: incubation time: 72 h
Protocol: as §1

Hs578T = assay: as above; conditions: incubation time: 72 h
Protocol: as §1

CAL-85-1 [6] = assay: as above; conditions: incubation time: 72 h
Protocol: as §1

MDA-MB-468 = assay: as above; conditions: incubation time: 72 h
Protocol: as §1

HCC1937 = assay: as above; conditions: incubation time: 72 h
Protocol: as §1

DU-4475 [7] = assay: normalised viability (% of control), CellTiter-Blue; higher = more viable cells (about 100 = DMSO control); conditions: 10000 nM; incubation time: 72 h
Protocol: (§2)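 DSRT, CellTiter-Blue viability, 72 h incubation. Signal is normalised to DMSO and benzethonium chloride controls. Value is the normalised response at dose 9.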

MDA-MB-453 [8] = assay: as above; conditions: 10000 nM; incubation time: 72 h
Protocol: as §2

HDQ-P1 [9] = assay: as above; conditions: 10000 nM; incubation time: 72 h
Protocol: as §2

DU-4475 [10] = assay: as above; conditions: 3000 nM; incubation time: 72 h
Protocol: (§3)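 DSRT, CellTiter-Blue viability, 72 h incubation. Signal is normalised to DMSO and benzethonium chloride controls. Value is the normalised response at dose 8.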

CAL-51 [11] = assay: as above; conditions: 3000 nM; incubation time: 72 h
Protocol: as §3

MDA-MB-453 [12] = assay: as above; conditions: 3000 nM; incubation time: 72 h
Protocol: as §3

CAL-148 [13] = assay: as above; conditions: 3000 nM; incubation time: 72 h
Protocol: as §3

HDQ-P1 [14] = assay: as above; conditions: 3000 nM; incubation time: 72 h
Protocol: as §3

CAL-85-1 [15] = assay: as above; conditions: 3000 nM; incubation time: 72 h
Protocol: as §3

Structure (SMILES)	drug sensitivity score (DU-4475 [1])	drug sensitivity score (HCC1143)	drug sensitivity score (CAL-120)	drug sensitivity score (CAL-51 [2])	drug sensitivity score (BT-474)	drug sensitivity score (MDA-MB-231)	drug sensitivity score (MDA-MB-453 [3])	drug sensitivity score (CAL-148 [4])	drug sensitivity score (HCC1599)	drug sensitivity score (MFM-223)	drug sensitivity score (BT-549)	drug sensitivity score (SK-BR-3)	drug sensitivity score (MDA-MB-436)	drug sensitivity score (HDQ-P1 [5])	drug sensitivity score (Hs578T)	drug sensitivity score (CAL-85-1 [6])	drug sensitivity score (MDA-MB-468)	drug sensitivity score (HCC1937)	normalised viability (DU-4475 [7]) [%]	normalised viability (MDA-MB-453 [8]) [%]	normalised viability (HDQ-P1 [9]) [%]	normalised viability (DU-4475 [10]) [%]	normalised viability (CAL-51 [11]) [%]	normalised viability (MDA-MB-453 [12]) [%]	normalised viability (CAL-148 [13]) [%]	normalised viability (HDQ-P1 [14]) [%]	normalised viability (CAL-85-1 [15]) [%]
C=CC(=O)Nc1cc2c(Nc3ccc(F)c(Cl)c3)ncnc2cc1OCCCN1CCOCC1 [Canertinib]	2.6	3.63	6.69	3.66	18.5	8.24	15.9	7.47	1.14	5.96	6.86	27.4	11.6	14	4.83	11.9	13.9	7.24	6.91	10.3	1.8	103	79.9	28.2	60	27.5	34.3
O=C(Cc1ccc(-c2ccc(OCCN3CCOCC3)cc2)cn1)NCc1ccccc1 [KX2-391]	25.9	23.1	23.4	24.2	11.2	24.2	21.5	22.6	7.95	17.9	24.1	25	14.6	16	25.9	19.6	16.6	24.2	15.5	38.1	47.6	8.65	11.3	36.2	24.2	41.6	42.1
NCCCNCCSP(=O)(O)O [Amifostine]	0	0	0	0	0	0	0	0	3.86	0	0	0	0	0	0	0	0	0	90.6	86.4	100	110	107	96.6	95.1	94.8	91.6
O=C(O)C(=O)O.[NH-][C@@H]1CCCC[C@H]1[NH-].[Pt+2] [Oxaliplatin]	1.32	1.68	0	1.13	0	0	1.94	2.79	2.34	0	4	0.975	2.6	0	0	0	2.32	3.82	41.8	28.5	60.2	108	118	100	82.8	102	84.5
CCCS(=O)(=O)Nc1ccc(F)c(C(=O)c2c[nH]c3ncc(-c4ccc(Cl)cc4)cc23)c1F [Vemurafenib]	17.3	0	0	0	0	0	0	0	0	0	0	0	0	1.56	1.04	2.25	0	0.544	-0.32	75.5	68.6	4.66	107	87.3	89.1	83.1	75.7
COc1cc([C@@H]2c3cc4c(cc3[C@@H](O[C@@H]3O[C@@H]5CO[C@@H](c6cccs6)O[C@H]5[C@H](O)[C@H]3O)[C@H]3COC(=O)[C@H]23)OCO4)cc(OC)c1O [Teniposide]	28	11.7	11.2	22.2	1.44	7.47	6.23	18.5	8.13	7.43	9.11	21.4	10.3	4.07	4.64	8.14	10.9	19.7	-1.93	30.6	53.2	2.12	12.6	52.4	9.86	67.3	41
Cc1ccc(-c2cc(C(F)(F)F)nn2-c2ccc(S(N)(=O)=O)cc2)cc1 [Celecoxib]	0	0	0	0	0	0	1.65	0	0	0	0	0	3.91	4.34	0	0	0	2.89	68.5	34	80.3	96.6	99.5	91.7	89.3	83.9	77.6
